Like-named read-outs stand apart in the source and are kept apart here.
How the values were obtained:
[1] = tested on: Onchocerca gutturosa adult male worms; assay: O. gutturosa adult male worm 5-day motility assay; conditions: for activity against adult O. gutturosa: metabolites of oxfendazole, less potent compared to oxfendazole
[2] = tested on: Onchocerca gutturosa adult male worms; assay: O. gutturosa adult worm MTT/formazan viability assay; conditions: 120 h
[3] = tested on: Onchocerca lienalis microfilariae; assay: O. lienalis microfilariae 5-day motility assay; conditions: 120 h
Brugia pahangi [4] = tested on: Brugia pahangi; design: method as in Reddy 1983 (Ref. 15); conditions: L3 (SC), Mastomys natalensis, patent phase, necropsy 43 days p.t., ref Reddy 1983 (Ref. 15), cited from earlier work
Breinlia booliati = tested on: Breinlia booliati; design: method as in Mak 1981 (Ref. 7); conditions: 100L3 (SC), rats, SC 10mg/kg 5 cons. days, patent phase, necropsy 4 weeks p.t.; ref Mak 1981 (Ref. 7); cited from earlier work
Litomosoides sigmodontis [5] = tested on: Litomosoides sigmodontis; design: method as in Shibuya 1979 (Ref. 12); conditions: cotton rat, ref Shibuya 1979 (Ref. 12), cited from earlier work
Litomosoides sigmodontis [6] = tested on: Litomosoides sigmodontis; design: method as in Reddy 1983 (Ref. 15); conditions: L3 (mite), Mastomys natalensis, patent phase, necropsy 43 days p.t., ref Reddy 1983 (Ref. 15), cited from earlier work
Brugia pahangi [7] = conditions: jirds, cited from earlier work
Brugia pahangi [8] = conditions: L3, cats, patent phase, necropsy 42 days p.t., ref Denham 1980 (Ref. 5), cited from earlier work
Brugia pahangi [9] = tested on: Brugia pahangi; design: method as in Devaney 1985 (Ref. 8); conditions: 50L3, balb/c, SC 10 or 50 mg/kg 5 cons. days, 4 days p.i., necropsy 3-4 weeks p.t.; ref Devaney 1985 (Ref. 8); cited from earlier work
[10] = tested on: L. sigmodontis microfilariae; assay: L. sigmodontis microfilariae-injected naïve mice; format: in vivo, Litomosoides sigmodontis; conditions: single intraperitoneal injection 5 mg/kg
Experimental: To investigate the in vivo efficacy of oxfendazole on microfilariae, microfilariae were isolated from peripheral blood of L. sigmodontis-infected cotton rats according to Chandrashekar et al. (1984) using a sucrose percoll gradient. 100,000 microfilariae were injected into the tail vein of naïve mice as previously described. Microfilariae-injected mice were treated with a commercial formulation of oxfendazole (Dolthene) twice daily with 2 x 12.5 mg/kg per os. As a positive control, additional mice were treated with a single intraperitoneal dose of ivermectin (5 mg/kg) in DMSO/PEG400/H20dest with a ratio of 1:7:2 according to Halliday et al.. Control animals received no treatment.

With `COC(=O)Nc1nc2ccc(S(=O)(=O)c3ccccc3)cc2[nH]1` [fenbendazole sulfone] the “activity against adult O. gutturosa” value [1] was “active”.

For `COC(=O)Nc1nc2ccc(Sc3ccccc3)cc2[nH]1` [fenbendazole], the “activity against adult O. gutturosa” value [1] was “active”.

For `Cl.Cl.NCCS[As](SCCN)c1ccc(Nc2nc(N)nc(N)n2)cc1` [Immiticide, melarsomine dihydrochloride], the “MTT Reduction (%)” value ([2]; 1.25 x 10^-5 M) was 91%, the “MTT Reduction (%)” value ([2]; 1.9 x 10^-7 M) was 51% and the “MTT Reduction (%)” value ([2]; 3.1 x 10^-6 M) was 94%. The “MTT Reduction (%)” value ([2]; 7.8 x 10^-7 M) was 79%, the “Motility Reduction (%)” value ([1]; 1.25 x 10^-5 M, 48 h) was 100% and the “Motility Reduction (%)” value ([1]; 1.25 x 10^-5 M, 72 h) was 100%. The “Motility Reduction (%)” value ([1]; 1.25 x 10^-5 M, 96 h) was 100%, the “Motility Reduction (%)” value ([1]; 1.25 x 10^-5 M, 120 h) was 100% and the “Motility Reduction (%)” value ([1]; 1.9 x 10^-7 M, 24 h) was 4%. The “Motility Reduction (%)” value ([1]; 1.9 x 10^-7 M, 48 h) was 9%, the “Motility Reduction (%)” value ([1]; 1.9 x 10^-7 M, 72 h) was 33% and the “Motility Reduction (%)” value ([1]; 1.9 x 10^-7 M, 96 h) was 44%. For the same molecule, the “Motility Reduction (%)” value ([1]; 1.9 x 10^-7 M, 120 h) was 44%, the “Motility Reduction (%)” value ([1]; 3.1 x 10^-6 M, 48 h) was 100% and the “Motility Reduction (%)” value ([1]; 3.1 x 10^-6 M, 72 h) was 100%. The “Motility Reduction (%)” value ([1]; 3.1 x 10^-6 M, 96 h) was 100%, the “Motility Reduction (%)” value ([1]; 3.1 x 10^-6 M, 120 h) was 100% and the “Motility Reduction (%)” value ([1]; 7.8 x 10^-7 M, 24 h) was 49%. For the same molecule, the “Motility Reduction (%)” value ([1]; 7.8 x 10^-7 M, 48 h) was 74%, the “Motility Reduction (%)” value ([1]; 7.8 x 10^-7 M, 72 h) was 93% and the “Motility Reduction (%)” value ([1]; 7.8 x 10^-7 M, 120 h) was 100%. The “effect on microfilariae motility” value ([3]; concentrations equal or above 3.1·10^−6 M) was “completely inhibited microfilariae motility”.

In the case of `COC(=O)Nc1nc2ccc(C(=O)c3ccccc3)cc2[nH]1` [meb, mebendazole], the “Reduction of worm burden” value (Brugia pahangi [4]; SC 100mg/kg 5 cons. days) is given as 100%, the “Reduction of worm burden” value (Brugia pahangi [4]; per os 150mg/kg 5 cons. days) is given as 0% and the “Reduction of worm burden” value (Breinlia booliati) is given as 83%. For the same molecule, the “Reduction of worm burden” value (Litomosoides sigmodontis [5]; IP 1mg/kg 3 cons.days, patent phase, necropsy 4 weeks p.t.) was 50%, the “Reduction of worm burden” value (Litomosoides sigmodontis [5]; IP 10mg/kg 3 cons.days, patent phase, necropsy 4 weeks p.t.) was 100% and the “Reduction of worm burden” value (Litomosoides sigmodontis [5]; IP 100mg/kg x1, patent phase, necropsy 4 weeks p.t.) was 100%. For the same molecule, the “Reduction of worm burden” value (Litomosoides sigmodontis [5]; IT 0.1mg/kg 3 cons.days, patent phase, necropsy 5 weeks p.t.) was 0%, the “Reduction of worm burden” value (Litomosoides sigmodontis [5]; IT 1mg/kg 3 cons.days, patent phase, necropsy 5 weeks p.t.) was 100% and the “Reduction of worm burden” value (Litomosoides sigmodontis [5]; IT 10mg/kg 3 cons.days, patent phase, necropsy 3 weeks p.t.) was 20%. For the same molecule, the “Reduction of worm burden” value (Litomosoides sigmodontis [5]; IT 10mg/kg 3 cons.days, patent phase, necropsy 5 weeks p.t.) was 100%, the “Reduction of worm burden” value (Litomosoides sigmodontis [5]; IT 10mg/kg 4 cons.days, patent phase, necropsy 4 weeks p.t.) was 0% and the “Reduction of worm burden” value (Litomosoides sigmodontis [5]; IT 25mg/kg x1, patent phase, necropsy 5 weeks p.t.) was 75%. For the same molecule, the “Reduction of worm burden” value (Litomosoides sigmodontis [5]; IT 100mg/kg x1, patent phase, necropsy 5 weeks p.t.) was 85%, the “Reduction of worm burden” value (Litomosoides sigmodontis [6]; SC 100mg/kg 5 cons. days) was 100% and the “Reduction of worm burden” value (Litomosoides sigmodontis [6]; per os 150mg/kg 5 cons. days) was 70%. The “Reduction of worm burden” value (Brugia pahangi [7]; 15Ad (IP), SC 25-12,5mg/kg 5 cons. days, 4 days p.i., necropsy 5 weeks p.t., ref Surin 1990 (Ref. 11)) was 100%, the “Reduction of worm burden” value (Brugia pahangi [7]; 50L3 (IP), SC 25mg/kg 5 cons. days, 70 days p.i., necropsy 5 weeks p.t., ref Surin 1990 (Ref. 11)) was 97% and the “Reduction of worm burden” value (Brugia pahangi [7]; 50L3 (IP), SC 12,5mg/kg 5 cons. days, 70 days p.i., necropsy 5 weeks p.t., ref Surin 1990 (Ref. 11)) was 78.5%. For the same molecule, the “Reduction of worm burden” value (Brugia pahangi [7]; 100L3 (IP), SC 50mg/kg 5 cons.days, 3 months p.i., necropsy 15 days p.t., ref Denham 1978 (Ref. 3)) was 70%, the “Reduction of worm burden” value (Brugia pahangi [7]; 100L3 (IP), SC 50mg/kg 5 cons.days, 3 months p.i., necropsy 20 days p.t., ref Denham 1978 (Ref. 3)) was 100% and the “Reduction of worm burden” value (Brugia pahangi [7]; 100L3 (IP), SC 50mg/kg 5 cons.days, 3 months p.i., necropsy 30 days p.t., ref Denham 1978 (Ref. 3)) was 100%.

For `CCCSc1ccc2nc(NC(=O)OC)[nH]c2c1` [albendazole], the “MTT Reduction (%)” value ([2]; 1.25 x 10^-5 M) was 28%, the “MTT Reduction (%)” value ([2]; 3.1 x 10^-6 M) was 19% and the “MTT Reduction (%)” value ([2]; 5.0 x 10^-5 M) was 47%. The “MTT Reduction (%)” value ([2]; 7.8 x 10^-7 M) was 18%, the “Reduction of worm burden” value (Brugia pahangi [4]; SC 100mg/kg 5 cons. days) was 100% and the “Reduction of worm burden” value (Brugia pahangi [4]; per os 150mg/kg 5 cons. days) was 50%. For the same molecule, the “Reduction of worm burden” value (Litomosoides sigmodontis [6]; SC 100mg/kg 5 cons. days) was 100%, the “Reduction of worm burden” value (Litomosoides sigmodontis [6]; per os 150mg/kg 5 cons. days) was 0% and the “Reduction of worm burden” value (Brugia pahangi [8]; SC 25mg/kg 5 cons. days) was 50%. For the same molecule, the “Reduction of worm burden” value (Brugia pahangi [8]; SC 50mg/kg 5 cons. days) was 100%, the “Reduction of worm burden” value (Brugia pahangi [8]; SC 100mg/kg 5 cons. days) was 100% and the “Motility Reduction (%)” value ([1]; 1.25 x 10^-5 M, 24 h) was 10%. The “Motility Reduction (%)” value ([1]; 1.25 x 10^-5 M, 48 h) was 12%, the “Motility Reduction (%)” value ([1]; 1.25 x 10^-5 M, 72 h) was 27% and the “Motility Reduction (%)” value ([1]; 1.25 x 10^-5 M, 96 h) was 38%. For the same molecule, the “Motility Reduction (%)” value ([1]; 1.25 x 10^-5 M, 120 h) was 40%, the “Motility Reduction (%)” value ([1]; 3.1 x 10^-6 M, 24 h) was 10% and the “Motility Reduction (%)” value ([1]; 3.1 x 10^-6 M, 48 h) was 5%. For the same molecule, the “Motility Reduction (%)” value ([1]; 3.1 x 10^-6 M, 72 h) was 16%, the “Motility Reduction (%)” value ([1]; 3.1 x 10^-6 M, 96 h) was 26% and the “Motility Reduction (%)” value ([1]; 3.1 x 10^-6 M, 120 h) was 40%. For the same molecule, the “Motility Reduction (%)” value ([1]; 5.0 x 10^-5 M, 24 h) was 10%, the “Motility Reduction (%)” value ([1]; 5.0 x 10^-5 M, 48 h) was 12% and the “Motility Reduction (%)” value ([1]; 5.0 x 10^-5 M, 72 h) was 29%. For the same molecule, the “Motility Reduction (%)” value ([1]; 5.0 x 10^-5 M, 96 h) was 40%, the “Motility Reduction (%)” value ([1]; 5.0 x 10^-5 M, 120 h) was 47% and the “Motility Reduction (%)” value ([1]; 7.8 x 10^-7 M, 24 h) was 10%. For the same molecule, the “Motility Reduction (%)” value ([1]; 7.8 x 10^-7 M, 48 h) was 9%, the “Motility Reduction (%)” value ([1]; 7.8 x 10^-7 M, 72 h) was 13% and the “Motility Reduction (%)” value ([1]; 7.8 x 10^-7 M, 96 h) was 33%. The “Motility Reduction (%)” value ([1]; 7.8 x 10^-7 M, 120 h) was 33%, the “activity against microfilariae compared to oxfendazole” value [3] was “even less active” and the “Reduction of worm burden” value (Brugia pahangi [7]; 15Ad (IP), SC 50mg/kg 5 cons. days, necropsy 4-5 weeks p.t., ref Denham 1980 (Ref. 5)) was 100%. For the same molecule, the “Reduction of worm burden” value (Brugia pahangi [7]; 15Ad (IP), SC 25-12.5mg/kg 5 cons. days, necropsy 4-5 weeks p.t., ref Denham 1980 (Ref. 5)) was 80-90%, the “Reduction of worm burden” value (Brugia pahangi [7]; 15Ad (IP), SC 50-25mg/kg 5 cons. days, 4 days p.i., necropsy 5 weeks p.t., ref Surin 1990 (Ref. 11)) was 100% and the “Reduction of worm burden” value (Brugia pahangi [7]; 15Ad (IP), SC <6,25mg/kg 5 cons. days, necropsy 4-5 weeks p.t., ref Denham 1980 (Ref. 5)) was under 30%. The “Reduction of worm burden” value (Brugia pahangi [7]; 50L3 (IP), SC 50-25mg/kg 5 cons. days, 70 days p.i., necropsy 5 weeks p.t., ref Surin 1990 (Ref. 11)) was 90% and the “Reduction of worm burden” value (Brugia pahangi [9]) was 100%.

For ivermectin, the microfilaremia ([10]; by 6 h after treatment) was “statistically significant reduction of microfilaremia” and the microfilaremia ([10]; from day four after treatment until end of experiment) was “microfilariae negative”.

Source: PMC7365463, “Oxfendazole mediates macrofilaricidal efficacy against the filarial nematode Litomosoides sigmodontis in vivo and inhibits Onchocerca spec. motility in vitro” (PLoS Neglected Tropical Diseases, 2020)
